Assay results published in PubChem BioAssay AID1963828 (Molecular Pharmacology Branch, DTP, NCI, 2024).
pIC50: −log10 of the molar value.

System: 991263-137-R1-J2-PDC complex spheroid viability
Assay: Anticancer human tumor 991263-137-R1-J2-PDC patient-derived colon adenocarcinoma cell line growth inhibition [POLQ]
Settings: for pIC50: curve of first compound; for viability, T/C: stronger effect = lower value
In short: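 Patient-derived tumour cells were co-cultured with HUVEC and mesenchymal stem cells as multicellular spheroids at 37 °C. They were treated with POLQ inhibitors (novobiocin, ART-558, RP6685) alone or combined with other agents. Top concentrations were at or near clinical Cmax (otherwise 10 microM; SN-38 at 1 microM), decreasing in half-log steps.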

[1] = second compound 0.0316 µM, first compound 0.0316 µM
[2] = second compound 0.0316 µM, first compound 0.1 µM
[3] = second compound 0.0316 µM, first compound 0.316 µM
[4] = second compound 0.0316 µM, first compound 1 µM
[5] = second compound 0.1 µM, first compound 0.0316 µM
[6] = second compound 0.1 µM, first compound 0.1 µM
[7] = second compound 0.1 µM, first compound 0.316 µM
[8] = second compound 0.1 µM, first compound 1 µM
[9] = second compound 0.316 µM, first compound 0.0316 µM
[10] = second compound 0.316 µM, first compound 0.1 µM
[11] = second compound 0.316 µM, first compound 0.316 µM
[12] = second compound 0.316 µM, first compound 1 µM
[13] = second compound 1 µM, first compound 0.0316 µM
[14] = second compound 1 µM, first compound 0.1 µM
[15] = second compound 1 µM, first compound 0.316 µM
[16] = second compound 1 µM, first compound 1 µM
[17] = second compound 3.16 µM, first compound 0.0316 µM
[18] = second compound 3.16 µM, first compound 0.1 µM
[19] = second compound 3.16 µM, first compound 0.316 µM
[20] = second compound 3.16 µM, first compound 1 µM
[21] = second compound 10 µM, first compound 0.0316 µM
[22] = second compound 10 µM, first compound 0.1 µM
[23] = second compound 10 µM, first compound 0.316 µM
[24] = second compound 10 µM, first compound 1 µM
[25] = second compound 0.0316 µM, first compound 3.16 µM
[26] = second compound 0.0316 µM, first compound 10 µM
[27] = second compound 0.1 µM, first compound 3.16 µM
[28] = second compound 0.1 µM, first compound 10 µM
[29] = second compound 0.316 µM, first compound 3.16 µM
[30] = second compound 0.316 µM, first compound 10 µM
[31] = second compound 1 µM, first compound 3.16 µM
[32] = second compound 1 µM, first compound 10 µM
[33] = second compound 3.16 µM, first compound 3.16 µM
[34] = second compound 3.16 µM, first compound 10 µM
[35] = second compound 10 µM, first compound 3.16 µM
[36] = second compound 10 µM, first compound 10 µM
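Also: spheroids exposed to compounds for 7 days before readout.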
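For viability, T/C in this document: 100% = DMSO vehicle control viability.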

Work on `COc1cccc(OCCCN)c1-c1cc(Nc2cnc(C#N)cn2)n[nH]1` + Nc1ccc(C#CCN(C(=O)Cc2ncc(C(F)(F)F)cc2C(F)(F)F)c2ccc(F)cc2)nn1 yielded a pIC50 (second compound 0.0316 µM) of 6.14, a pIC50 (second compound 0.1 µM) of 6.23 and a pIC50 (second compound 0.316 µM) of 6.18. It also gave a pIC50 (second compound 1 µM) of 6.14, a pIC50 (second compound 3.16 µM) of 6.37 and a pIC50 (second compound 10 µM) of 7.06. For the same compound, the viability, T/C (second compound 0.0316 µM, first compound 0.00316 µM) was 114%, the viability, T/C (second compound 0.0316 µM, first compound 0.01 µM) was 89.4% and the viability, T/C [1] was 105%. It also gave a viability, T/C [2] of 83.4%, a viability, T/C [3] of 55.9% and a viability, T/C [4] of 47.5%. It also gave a viability, T/C (second compound 0.1 µM, first compound 0.00316 µM) of 104%, a viability, T/C (second compound 0.1 µM, first compound 0.01 µM) of 105% and a viability, T/C [5] of 100%. It also gave a viability, T/C [6] of 82.8%, a viability, T/C [7] of 57.8% and a viability, T/C [8] of 43.5%. The viability, T/C (second compound 0.316 µM, first compound 0.00316 µM) was 102%, the viability, T/C (second compound 0.316 µM, first compound 0.01 µM) was 106% and the viability, T/C [9] was 103%. It also gave a viability, T/C [10] of 85.1%, a viability, T/C [11] of 67.9% and a viability, T/C [12] of 40.7%. It also gave a viability, T/C (second compound 1 µM, first compound 0.00316 µM) of 106%, a viability, T/C (second compound 1 µM, first compound 0.01 µM) of 95.2% and a viability, T/C [13] of 89.4%. The viability, T/C [14] was 80.9%, the viability, T/C [15] was 70.5% and the viability, T/C [16] was 42%. It also gave a viability, T/C (second compound 3.16 µM, first compound 0.00316 µM) of 102%, a viability, T/C (second compound 3.16 µM, first compound 0.01 µM) of 93.2% and a viability, T/C [17] of 83.4%. For the same compound, the viability, T/C [18] was 70.4%, the viability, T/C [19] was 51.5% and the viability, T/C [20] was 41.4%. For the same compound, the viability, T/C (second compound 10 µM, first compound 0.00316 µM) was 93.3%, the viability, T/C (second compound 10 µM, first compound 0.01 µM) was 96.5% and the viability, T/C [21] was 73%. For the same compound, the viability, T/C [22] was 46.8%, the viability, T/C [23] was 49.9% and the viability, T/C [24] was 44.2%.
With `Nc1ccn(C2OC(CO)C(O)C2(F)F)c(=O)n1` (stereo unspecified) + Nc1ccc(C#CCN(C(=O)Cc2ncc(C(F)(F)F)cc2C(F)(F)F)c2ccc(F)cc2)nn1 the pIC50 (second compound 0.0316 µM) was 5.24, the pIC50 (second compound 0.1 µM) was < 5.00 and the pIC50 (second compound 0.316 µM) was 5.28. For the same compound, the pIC50 (second compound 1 µM) was < 5.00, the pIC50 (second compound 3.16 µM) was < 5.00 and the pIC50 (second compound 10 µM) was < 5.00. For the same compound, the viability, T/C [1] was 96.1%, the viability, T/C [2] was 75.6% and the viability, T/C [3] was 64.4%. It also gave a viability, T/C [4] of 58.4%, a viability, T/C [25] of 55.2% and a viability, T/C [26] of 45.8%. It also gave a viability, T/C [5] of 89.6%, a viability, T/C [6] of 77.5% and a viability, T/C [7] of 59.2%. It also gave a viability, T/C [8] of 61.7%, a viability, T/C [27] of 59.9% and a viability, T/C [28] of 47.6%. It also gave a viability, T/C [9] of 94.3%, a viability, T/C [10] of 74.1% and a viability, T/C [11] of 65.9%. For the same compound, the viability, T/C [12] was 64.2%, the viability, T/C [29] was 57.3% and the viability, T/C [30] was 43.1%. It also gave a viability, T/C [13] of 92.6%, a viability, T/C [14] of 68.3% and a viability, T/C [15] of 69.5%. The viability, T/C [16] was 59.8%, the viability, T/C [31] was 55.8% and the viability, T/C [32] was 50.2%. For the same compound, the viability, T/C [17] was 104%, the viability, T/C [18] was 82.1% and the viability, T/C [19] was 69.4%. It also gave a viability, T/C [20] of 62.5%, a viability, T/C [33] of 63.4% and a viability, T/C [34] of 51.2%. The viability, T/C [21] was 104%, the viability, T/C [22] was 89.6% and the viability, T/C [23] was 71.1%. For the same compound, the viability, T/C [24] was 69.5%, the viability, T/C [35] was 64.3% and the viability, T/C [36] was 60.7%.
With `O=C(c1cc(Cc2n[nH]c(=O)c3ccccc23)ccc1F)N1CCN(C(=O)C2CC2)CC1` + Nc1ccc(C#CCN(C(=O)Cc2ncc(C(F)(F)F)cc2C(F)(F)F)c2ccc(F)cc2)nn1 the pIC50 (second compound 0.0316 µM) was < 5.00, the pIC50 (second compound 0.1 µM) was < 5.00 and the pIC50 (second compound 0.316 µM) was < 5.00. For the same compound, the pIC50 (second compound 1 µM) was < 5.00, the pIC50 (second compound 3.16 µM) was < 5.00 and the pIC50 (second compound 10 µM) was < 5.00. For the same compound, the viability, T/C [1] was 105%, the viability, T/C [2] was 101% and the viability, T/C [3] was 90.1%. For the same compound, the viability, T/C [4] was 98.5%, the viability, T/C [25] was 98.2% and the viability, T/C [26] was 99.8%. For the same compound, the viability, T/C [5] was 101%, the viability, T/C [6] was 97.4% and the viability, T/C [7] was 90.3%. The viability, T/C [8] was 96.1%, the viability, T/C [27] was 110% and the viability, T/C [28] was 90%. For the same compound, the viability, T/C [9] was 106%, the viability, T/C [10] was 104% and the viability, T/C [11] was 93.8%. It also gave a viability, T/C [12] of 97%, a viability, T/C [29] of 101% and a viability, T/C [30] of 97.2%. For the same compound, the viability, T/C [13] was 104%, the viability, T/C [14] was 96.1% and the viability, T/C [15] was 94.3%. It also gave a viability, T/C [16] of 90.3%, a viability, T/C [31] of 105% and a viability, T/C [32] of 90.4%. It also gave a viability, T/C [17] of 103%, a viability, T/C [18] of 103% and a viability, T/C [19] of 95.4%. The viability, T/C [20] was 100%, the viability, T/C [33] was 105% and the viability, T/C [34] was 105%. For the same compound, the viability, T/C [21] was 95.5%, the viability, T/C [22] was 93.6% and the viability, T/C [23] was 104%. It also gave a viability, T/C [24] of 96.7%, a viability, T/C [35] of 97.1% and a viability, T/C [36] of 102%.
